# From ChEMBL document CHEMBL1275310, “Synthesis and screening of some novel fused thiophene and thienopyrimidine derivatives for anti-avian influenza virus (H5N1) activity” (2010)
# What was measured:
# Assay type in all cases: functional
# Influenza A virus [1] = assay: Antiviral activity against Influenza A virus (A/chicken/Egypt/1/2006 (H5N1)) infected in MDCK cells assessed as virus-induced cytopathogenicity at 40 ug after 3 to 4 days by plaque reduction assay
# Influenza A virus [2] = assay: Antiviral activity against Influenza A virus (A/chicken/Egypt/1/2006 (H5N1)) infected in MDCK cells assessed as virus-induced cytopathogenicity at 5 ug after 3 to 4 days by plaque reduction assay
# Influenza A virus [3] = assay: Antiviral activity against Influenza A virus (A/chicken/Egypt/1/2006 (H5N1)) infected in MDCK cells assessed as virus-induced cytopathogenicity at 10 ug after 3 to 4 days by plaque reduction assay
# Influenza A virus [4] = assay: Antiviral activity against Influenza A virus (A/chicken/Egypt/1/2006 (H5N1)) infected in MDCK cells assessed as virus-induced cytopathogenicity at 20 ug after 3 to 4 days by plaque reduction assay
SMILES,inhibition (INH) (Influenza A virus [1]),inhibition (INH) (Influenza A virus [2]),inhibition (INH) (Influenza A virus [3]),inhibition (INH) (Influenza A virus [4])
NC(=O)c1c(N)sc2c1-c1ccccc1CC2,89%,,,
O=c1[nH]c(=S)[nH]c2sc3c(c12)-c1ccccc1CC3,65%,,,
O=c1[nH]c(=O)c2c3c(sc2[nH]1)CCc1ccccc1-3,98%,92%,94%,95%
